Measured values taken from patent publication US4272437A, “Antibacterial agents, and 4-thio azetidinone intermediates” (priority 1979, dated 1981).
Converted amounts (≈) assume the structure as drawn. “And” between values parts separate entries of the source, which are not always exact repeats. Equal entries are not always repeated.

What was measured:
[1] = test system: Staph. aureus A-9537 and 50% serum; test: MIC, tube dilution, Staph. aureus A9537 + 50% serum; type: cell-based, Staphylococcus aureus; details: overnight 37° C.
Excerpt: (§1) Representative compounds of the present invention were subjected to in vitro antibiotic screening against a variety of microorganisms.

K. pneumoniae A-15130 = test: MIC, tube dilution, Klebsiella pneumoniae A15130; type: cell-based; details: overnight 37° C.
Excerpt: as §1

Str. pneumoniae A-9585 = test: MIC, tube dilution, Streptococcus pneumoniae A9585; type: cell-based; details: Streptococcus pneumoniae, A9585, Str. pneumoniae A9585; overnight 37° C., Nutrient Broth; read-out: Minimum Inhibitory Concentration (M.I.C.)
Excerpt: as §1

Str. faecalis A-20688 = test: MIC, tube dilution, Streptococcus faecalis A20688; type: cell-based; details: overnight 37° C.
Excerpt: as §1

Str. pyogenes A-9604 = test: MIC, tube dilution, Streptococcus pyogenes A9604; type: cell-based; details: Streptococcus pyogenes, A9604, Str. pyogenes A9604; overnight 37° C., Nutrient Broth; read-out: Minimum Inhibitory Concentration (M.I.C.)
Excerpt: as §1

Proteus rettgeri A21203 = test: MIC, tube dilution, Proteus rettgeri A21203; type: cell-based; details: Providencia rettgeri, A21203, Proteus rettgeri A21203; overnight 37° C.; read-out: Minimum Inhibitory Concentration (M.I.C.)
Excerpt: as §1

[2] = test system: Staph. aureus (Pen-Res) A-9606; test: MIC, tube dilution, Staphylococcus aureus A9606 (Pen-Res); type: cell-based; details: Staph. aureus A9606 (Pen-Res), overnight 37° C.
Excerpt: as §1

Ps. aeruginosa A-21213 = test: MIC, tube dilution, Pseudomonas aeruginosa A21213; type: cell-based; details: Pseudomonas aeruginosa A21213; overnight 37° C.; read-out: Minimum Inhibitory Concentration (M.I.C.)
Excerpt: as §1

Ps. aeruginosa A-9843A = test: MIC, tube dilution, Pseudomonas aeruginosa A9843A; type: cell-based; details: Pseudomonas aeruginosa, A9843A, read-out: Minimum Inhibitory Concentration (M.I.C.), Pseudomonas aeruginosa A9843A; overnight 37° C.
Excerpt: as §1

Pr. mirabilis A-9900 = test: MIC, tube dilution, Proteus mirabilis A9900; type: cell-based; details: overnight 37° C.
Excerpt: as §1

Ser. marcescens A-20019 = test: MIC, tube dilution, Serratia marcescens A20019; type: cell-based; details: overnight 37° C.
Excerpt: as §1

Proteus vulgaris A9555 = test: MIC, tube dilution, Proteus vulgaris (mirabilis) A9555; type: cell-based; details: overnight 37° C., read-out: Minimum Inhibitory Concentration (M.I.C.)
Excerpt: as §1

Pr. morganii A-15153 = test: MIC, tube dilution, Proteus morganii A15153; type: cell-based; details: overnight 37° C.
Excerpt: as §1

Ent. cloacae A-9656 = test: MIC, tube dilution, Enterobacter cloacae A9656; type: cell-based; details: Enterobacter cloacae A9656; overnight 37° C.; read-out: Minimum Inhibitory Concentration (M.I.C.)
Excerpt: as §1

E. coli A-15119 = test: MIC, tube dilution, Escherichia coli A15119; type: cell-based; details: overnight 37° C.
Excerpt: as §1

[3] = test system: Staph. aureus (Meth-Res) A-15097; test: MIC, tube dilution, Staphylococcus aureus A15097 (Meth-Res); type: cell-based; details: Staph. aureus A15097 (Meth-Res), overnight 37° C.
Excerpt: as §1

E. coli A-20341-1 = test: MIC, tube dilution, Escherichia coli A20341-1; type: cell-based; details: E. coli A20341-1, overnight 37° C.
Excerpt: as §1

Staph. aureus A-9537 = test: MIC, tube dilution, Staphylococcus aureus A9537; type: cell-based; details: overnight 37° C., Nutrient Broth
Excerpt: as §1

[4] = test system: Klebsiella species A20468; test: MIC, tube dilution, Klebsiella species A20468; type: cell-based; details: Klebsiella species (K. pneumoniae) A20468, overnight 37° C.
Excerpt: as §1

Ent. cloacae A-9659 = test: MIC, tube dilution, Enterobacter cloacae A9659; type: cell-based; details: overnight 37° C.
Excerpt: as §1

[5] = test system: Providencia stuartii A21205; test: MIC, tube dilution, Providencia stuartii (Pr. rettgeri) A21205; type: cell-based; details: Providencia stuartii, A21205, read-out: Minimum Inhibitory Concentration (M.I.C.)
Excerpt: as §1

Pr. vulgaris A-9716 = test: MIC, tube dilution, Proteus vulgaris / Proteus mirabilis A9716; type: cell-based, Proteus vulgaris (name changed to Proteus mirabilis); details: Proteus vulgaris / Proteus mirabilis A9716; overnight 37° C.
Excerpt: as §1

S. aureus A9537 = test: In vivo protection of mice, lethal infection with S. aureus A9537; details: Staphylococcus aureus, A9537, im, read-out: PD50
Protocol: Representative compounds of the present invention were also tested in vivo in mice and their PD50 (dose of compound in mg/kg required to protect 50% of the treated mice against an otherwise lethal infection of a micro-organism) values determined with respect to the test organisms shown below.

[6] = Staphylococcus aureus, read-out: Minimum Inhibitory Concentration (M.I.C.)

SMILES: CC1=C(C(=O)O)N2C(=O)[C@H](C(C)(C)O)[C@H]2S1 (relative stereo) [Example 32, trans 6-(2'-Hydroxy-2'-propyl)-2-methylpenem-3-carboxylic Acid]
- MIC [1, 6]: 32 mg/L
- MIC (K. pneumoniae A-15130; Klebsiella pneumoniae, A15130, K. pneumoniae A15130, read-out: Minimum Inhibitory Concentration (M.I.C.)): 125 mg/L (≈ 514 µM)
- MIC (Str. pneumoniae A-9585): 0.25 mg/L (≈ 1.03 µM)
- MIC (Str. faecalis A-20688; Enterococcus faecalis, A20688, Str. faecalis A20688, read-out: Minimum Inhibitory Concentration (M.I.C.)): > 125 mg/L
- MIC (Str. pyogenes A-9604): 8 mg/L (≈ 32.9 µM)
- MIC (Proteus rettgeri A21203): 63 mg/L (≈ 259 µM)
- MIC [2, 6]: 16 mg/L (≈ 65.8 µM)
- MIC (Ps. aeruginosa A-21213): 125 mg/L (≈ 514 µM)
- MIC (Ps. aeruginosa A-9843A): 125 mg/L (≈ 514 µM)
- MIC (Pr. mirabilis A-9900; Proteus mirabilis, A9900, Proteus mirabilis A9900, read-out: Minimum Inhibitory Concentration (M.I.C.)): 63 mg/L (≈ 259 µM)
- MIC (Ser. marcescens A-20019; Serratia marcescens, A20019, Serratia marcescens A20019, read-out: Minimum Inhibitory Concentration (M.I.C.)): 63 mg/L (≈ 259 µM)
- MIC (Proteus vulgaris A9555): 125 mg/L (≈ 514 µM)
- MIC (Pr. morganii A-15153; Morganella morganii, A15153, Proteus morganii A15153, read-out: Minimum Inhibitory Concentration (M.I.C.)): 125 mg/L (≈ 514 µM)
- MIC (Ent. cloacae A-9656): 125 mg/L (≈ 514 µM)
- MIC (E. coli A-15119; Escherichia coli, A15119, E. coli A15119, read-out: Minimum Inhibitory Concentration (M.I.C.)): 63 mg/L (≈ 259 µM)
- MIC [3, 6]: 63 mg/L (≈ 259 µM)
- MIC (E. coli A-20341-1; Escherichia coli, A203411, read-out: Minimum Inhibitory Concentration (M.I.C.)): > 125 mg/L
- MIC (Staph. aureus A-9537; Staphylococcus aureus, A9537, Staph. aureus A9537, read-out: Minimum Inhibitory Concentration (M.I.C.)): 8 mg/L (≈ 32.9 µM)
- MIC ([4]; read-out: Minimum Inhibitory Concentration (M.I.C.)): > 125 mg/L
- MIC (Ent. cloacae A-9659; Enterobacter cloacae, A9659, Enterobacter cloacae A9659, read-out: Minimum Inhibitory Concentration (M.I.C.)): 125 mg/L (≈ 514 µM)

SMILES: O=C([O-])C1=C(Cc2ccccc2)S[C@@H]2CC(=O)N12.[Na+] [Example 13, Sodium 2-Benzylpenem-3-carboxylate]
- Minimum Inhibitory Concentration (M.I.C.) [1]: > 63 µg/mL
- Minimum Inhibitory Concentration (M.I.C.) (K. pneumoniae A-15130; K. pneumoniae A15130): 63 µg/mL
- Minimum Inhibitory Concentration (M.I.C.) (Str. faecalis A-20688; Str. faecalis A20688): 32 µg/mL
- MIC [5]: 4 mg/L
- Minimum Inhibitory Concentration (M.I.C.) [2]: 1 µg/mL
- Minimum Inhibitory Concentration (M.I.C.) (Pr. mirabilis A-9900; Proteus mirabilis A9900): 2 µg/mL
- Minimum Inhibitory Concentration (M.I.C.) (Pr. vulgaris A-9716): 2 µg/mL
- Minimum Inhibitory Concentration (M.I.C.) (Ser. marcescens A-20019; Serratia marcescens A20019): 32 µg/mL and 63 µg/mL
- Minimum Inhibitory Concentration (M.I.C.) (Pr. morganii A-15153; Proteus morganii A15153): 4 µg/mL
- Minimum Inhibitory Concentration (M.I.C.) (E. coli A-15119; E. coli A15119): 4 µg/mL
- Minimum Inhibitory Concentration (M.I.C.) [3]: 63 µg/mL
- Minimum Inhibitory Concentration (M.I.C.) (E. coli A-20341-1): 125 µg/mL
- ED50 (S. aureus A9537): 12.5 mg/kg
- Minimum Inhibitory Concentration (M.I.C.) (Staph. aureus A-9537; Staph. aureus A9537): .13 µg/mL
- Minimum Inhibitory Concentration (M.I.C.) [4]: 125 µg/mL
- Minimum Inhibitory Concentration (M.I.C.) (Ent. cloacae A-9659; Enterobacter cloacae A9659): 63 µg/mL
